We go through 4 compounds from ChEMBL document CHEMBL5131401, “Structural Basis for Developing Multitarget Compounds Acting on Cysteinyl Leukotriene Receptor 1 and G-Protein-Coupled Bile Acid Receptor 1” (J Med Chem, 2021).

Structures are written as SMILES. Converted amounts (≈) assume the structure as drawn.

Series [1] is described as follows: Lipophilicity, logD of the compound in octanol and phosphate buffer at pH 7.4 incubated for 2 hrs under shaking condition by LC-MS/MS analysis. The series is classed as physicochemical.
A short description of series [2]: Aqueous solubility of compound in pH 7.4 PBS buffer measured after 24 hrs by LC-MS/MS analysis. It is filed as physicochemical.
A short description of series [3]: Metabolic stability in human liver microsomes assessed as half life at 1 uM measured up to 60 mins in presence of NADPH by LC-MS/MS analysis. The series is classed as ADME, Microsome. The note with it: for half-life at 1 µM: liver microsomes. A general note: Microsomes from liver hold many membrane-bound enzymes, among them those of drug oxidation.
The nature of series [4]: Metabolic stability in human liver S9 fraction assessed as half life at 1 uM measured after 2 hrs in presence of NADPH by LC-MS/MS analysis. The series is classed as ADME, subcellular.

As a reminder, the logD is lipophilicity at a set pH, counting ionised and neutral species. Higher therefore signals higher lipophilicity. In general, solubility refers to the concentration that dissolves in the medium under given conditions. What is called half-life is the time needed for the level to fall by half in the phase considered.

As for `O=C(O)c1cccc(OCc2ccc3ccccc3n2)c1`, in series [1], the logD at 2 h turned out to be 0.12. The compound further returned a solubility at 24 h in series [2] of more than 200 µM.
Take `CCCCCC(O)c1cccc(OCc2ccc3ccccc3n2)c1` (stereo not drawn) [REV-5901]: the logD at 2 h in series [1] is 3.1. This compound also gave a solubility at 24 h in series [2] of 39.3 µM (≈ 13.2 µg/mL). The t1/2 in series [3] (microsomes, 1 h, 1 µM) was 37 h. For the same compound, in series [4], the half-life at 1 µM is 57 min.
Take `OCc1cccc(OCc2ccc3ccccc3n2)c1`: the logD at 2 h in series [1] was determined as 2.8. In series [2], this compound yielded a solubility at 24 h of 141 µM (≈ 37.4 µg/mL). The half-life at 1 µM came out at 48 min in series [3] and 119 min in series [4].
Compound `CCC(C)COc1cccc(OCc2ccc3ccccc3n2)c1` (stereo not drawn) registered a log distribution coefficient (logD) at 2 h in series [1] of 1.01. The compound further returned a solubility at 24 h in series [2] of 3.5 µM (≈ 1.12 µg/mL). The half-life at 1 µM in series [3] turned out to be 22.3 min.
